Biological target: T1, ABCG2 (Homo sapiens, UniProt Q9UNQ0)
T1 construct: made in house; host or cells: Sf21 insect cells, baculovirus (gift from Borst); plasma membrane vesicles
T1 sequence (Q9UNQ0 1-655): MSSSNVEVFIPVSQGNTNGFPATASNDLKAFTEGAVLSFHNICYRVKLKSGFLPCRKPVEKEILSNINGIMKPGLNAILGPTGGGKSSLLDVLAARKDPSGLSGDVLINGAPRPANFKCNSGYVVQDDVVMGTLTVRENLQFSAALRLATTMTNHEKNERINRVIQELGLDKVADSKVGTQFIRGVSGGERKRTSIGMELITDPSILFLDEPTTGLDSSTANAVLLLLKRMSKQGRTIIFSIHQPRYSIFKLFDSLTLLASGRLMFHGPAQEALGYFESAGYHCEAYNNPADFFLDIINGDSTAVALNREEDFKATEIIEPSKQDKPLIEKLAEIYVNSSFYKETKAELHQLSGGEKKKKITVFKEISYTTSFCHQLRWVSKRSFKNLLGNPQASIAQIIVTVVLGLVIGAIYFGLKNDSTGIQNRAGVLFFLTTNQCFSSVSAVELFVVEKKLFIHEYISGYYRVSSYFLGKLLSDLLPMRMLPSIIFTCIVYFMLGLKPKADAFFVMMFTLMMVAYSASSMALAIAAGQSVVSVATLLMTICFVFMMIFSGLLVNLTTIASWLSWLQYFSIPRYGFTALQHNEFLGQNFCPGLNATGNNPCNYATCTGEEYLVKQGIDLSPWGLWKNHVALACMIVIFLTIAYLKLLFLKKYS
Assay: ATP-dependent transport of CLF into Sf21 membrane vesicles containing ABCG2
Type: biochemical
Conditions: compared with control vesicles
Description: The production of recombinant baculovirus was as described by de Waart et al. [Liver Int 2006 April; 26(3):362-368]. ABCC3 and ABCG2-recombinant baculovirus were a kind gift from Borst [Breedveld P. et al., Cancer Res 2004 Aug. 15; 64(16):5804-5811 and Borst P. et al., J Biol Chem 2001 Dec. 7; 276(49):46400-46407.]. ABCB11-recombinant baculovirus was a kind gift from Thompson [Thompson R J et al., Gastroenterology 2002 November; 123(5):1649-1658]. Sf21 cells grown at 27° C. were infected with ABCB11, ABCC2, ABCC3 and ABCG2-cDNA containing baculovirus. Cells were harvested at 2-4 days after infection. Membrane vesicle preparation was as described by de Waart et al. [Liver Int 2006 April; 26(3):362-368].
Transport studies with membrane vesicles were performed using the rapid filtration technique as described by Heijn M et al. [Am J Physiol 1992 January; 262(1 Pt 1):C104-C110]. Radiolabel was measured with a scintillation counter. When CLF was used as a probe, filters were placed in a glass tube, 0.1% Triton-X-100 was added and the tubes vortexed. Samples were pipetted in 96-well plates (Kartell, Noviglio, Italy) and the amount CLF quantitated by measurement of fluorescence at λexe 485 nm and λcm 520 nm using a NovoStar (BMG-labtech, Offenburg, Germany).

`CC(CCC(=O)NC(CCCCNC(=S)Nc1ccc(-c2c3ccc(=O)cc-3oc3cc(O)ccc23)c(C(=O)O)c1)C(=O)O)C1CCC2C3C(O)CC4CC(O)CCC4(C)C3CC(O)C12C` (stereo not shown) [CLF, cholyl lysyl fluorescein] was tested, and the “ATP-dependent transport of CLF in ABCG2 containing membrane vesicles” value was “not higher than in control vesicles”.
